Experiment [1] deals with rhMIF-stimulated PBMCs. Put plainly: TNF-α production in rhMIF-stimulated PBMCs. The experiment is classed as cell-based. The conditions noted are these: PBMC; human PBMCs, 25 μM compound preincubated 1 hour, rhMIF stimulation, 24 hours. How it is done: Effect of Candidate Compounds on Cytokine Production from Human Cells: Mono-Mac-6 Cells: The cellular efficacy of the inhibitors is determined using the human monocytic cell line, Mono-Mac-6 cells (MM6 cells) as it has been shown that MIF induces the production of inflammatory mediators, including tumor necrosis factor-α (TNF-α) interleukin (IL)-1β, IL-6, IL-8, interferon-γ (IFN-γ) and prostaglandin E2 (PGE2) in these cells (Schwartz et al., 2009). Recombinant human MIF (rhMIF) will be purchased from R&D Systems (Minneapolis, Minn.) or generated in house. To induce the production of inflammatory mediators, MM6 cells will be plated at a final concentration of 5×10^5 cells/ml in RPMI 1640 medium containing 1% heat-inactivated low-pyrogen fetal bovine serum, 2 mM GlutaMAX-1,1% non-essential amino acids, 1% sodium pyruvate, 100 units/ml penicillin G and 100 μg/ml streptomycin (Gibco BRL Life Technologies). Cells will be stimulated with 100 ng/ml rhMIF with or without inhibitor for 20 h at 37° C. with 5% CO2. The supernatants were stored at −20° C. until they were assayed. The levels of inflammatory mediators will be determined using commercial ELISA kits from R&D Systems (Minneapolis, Minn.). Human Periperal Blood Mononuclear Cells (PBMC): Human whole blood is collected from healthy donors in sodium-heparinized tubes (BD Biosciences), and peripheral blood mononucleated cells (PBMC) are isolated by Ficoll separation. Cells are washed in Dulbecco's phosphate-buffered saline, resuspended in media (DMEM) containing 5% low endotoxin (<0.3 EU/ml) fetal Bovine Serum (FBS, GIBCO) and 10 units/ml penicillin/streptomycin, and plated at 5×10^5 cells/well in 96-well tissue culture plates. Lipopolysaccharide (LPS, E. coli Serotype 0111:B4, Sigma) or macrophage migration inhibitory factor are pre-incubated for 15 minutes with compounds dissolved in dimethyl sulfoxide (DMSO). The mixtures are then added to cells to yield final concentrations of 1% DMSO, 100 ng/ml LPS and 1 μg/ml MIF. Cells are incubated for overnight at 37° C., 5% CO2. TNF-α production is measured by ELISA (R&D Systems). Cytotoxicity is assessed using the MTT [3-(4,5-dimethylthiazol-2-yl)-2,5-diphenyl tetrazolium bromide assay. Human Rheumatoid Arthritis Synovial Fibroblast (RASF) Cell Line: RASF cells are derived from the inflamed synovium of a RA patient who was undergoing total knee replacement. Cells are cultured in Dulbecco's modified Eagle's medium with 15% FBS, 1% glutamine, and 1% penicillin/streptamycin (all from Gibco (Invitrogen), Gaithersburg, Md.). Experiments are performed with cells between passages 7 to 10, using trypsin with 0.25% ethylene diamine tetraacetic acid (EDTA)(Gibco) to detach cells. […] Interleukin 6 levels in culture supernatants are quantitated by ELISA. […]

In experiment [2] the test system is LPS-stimulated PBMCs. Kind of experiment: TNF-α production in LPS-stimulated PBMCs. It counts as cell-based. To be noted: PBMC; human PBMCs, 25 μM compound preincubated 1 hour, LPS stimulation, 24 hours. How it is done:
Effect of Candidate Compounds on Cytokine Production from Human Cells: Mono-Mac-6 Cells: The cellular efficacy of the inhibitors is determined using the human monocytic cell line, Mono-Mac-6 cells (MM6 cells) as it has been shown that MIF induces the production of inflammatory mediators, including tumor necrosis factor-α (TNF-α) interleukin (IL)-1β, IL-6, IL-8, interferon-γ (IFN-γ) and prostaglandin E2 (PGE2) in these cells (Schwartz et al., 2009). Recombinant human MIF (rhMIF) will be purchased from R&D Systems (Minneapolis, Minn.) or generated in house. To induce the production of inflammatory mediators, MM6 cells will be plated at a final concentration of 5×10^5 cells/ml in RPMI 1640 medium containing 1% heat-inactivated low-pyrogen fetal bovine serum, 2 mM GlutaMAX-1,1% non-essential amino acids, 1% sodium pyruvate, 100 units/ml penicillin G and 100 μg/ml streptomycin (Gibco BRL Life Technologies). Cells will be stimulated with 100 ng/ml rhMIF with or without inhibitor for 20 h at 37° C. with 5% CO2. The supernatants were stored at −20° C. until they were assayed. The levels of inflammatory mediators will be determined using commercial ELISA kits from R&D Systems (Minneapolis, Minn.). Human Periperal Blood Mononuclear Cells (PBMC): Human whole blood is collected from healthy donors in sodium-heparinized tubes (BD Biosciences), and peripheral blood mononucleated cells (PBMC) are isolated by Ficoll separation. Cells are washed in Dulbecco's phosphate-buffered saline, resuspended in media (DMEM) containing 5% low endotoxin (<0.3 EU/ml) fetal Bovine Serum (FBS, GIBCO) and 10 units/ml penicillin/streptomycin, and plated at 5×10^5 cells/well in 96-well tissue culture plates. Lipopolysaccharide (LPS, E. coli Serotype 0111:B4, Sigma) or macrophage migration inhibitory factor are pre-incubated for 15 minutes with compounds dissolved in dimethyl sulfoxide (DMSO). The mixtures are then added to cells to yield final concentrations of 1% DMSO, 100 ng/ml LPS and 1 μg/ml MIF. Cells are incubated for overnight at 37° C., 5% CO2. TNF-α production is measured by ELISA (R&D Systems). Cytotoxicity is assessed using the MTT [3-(4,5-dimethylthiazol-2-yl)-2,5-diphenyl tetrazolium bromide assay. Human Rheumatoid Arthritis Synovial Fibroblast (RASF) Cell Line: RASF cells are derived from the inflamed synovium of a RA patient who was undergoing total knee replacement. Cells are cultured in Dulbecco's modified Eagle's medium with 15% FBS, 1% glutamine, and 1% penicillin/streptamycin (all from Gibco (Invitrogen), Gaithersburg, Md.). Experiments are performed with cells between passages 7 to 10, using trypsin with 0.25% ethylene diamine tetraacetic acid (EDTA)(Gibco) to detach cells. Interleukin 1 or macrophage migration inhibitory factor (MIF, GIBCO) are pre-incubated for 15 minutes with compounds dissolved in dimethyl sulfoxide (DMSO). The mixtures are then added to cells to yield final concentrations of 1% DMSO, 1 ng/ml Interleukin 1 or 1 μg/ml MIF. RASFs are incubated with or without stimuli at 37° C. for 20 h for induction of Interelukin 6. Interleukin 6 levels in culture supernatants are quantitated by ELISA. Representative MIF inhibitors were tested in the assay described above, specifically, human peripheral blood mononuclear cells [PBMCs] were isolated and stimulated with either LPS or rhMIF.

Experiment [3] concerns rhMIF-stimulated PBMCs. Kind of experiment: IL-6 production in rhMIF-stimulated PBMCs. The experiment is classed as cell-based. The conditions noted are these: PBMC; human PBMCs, 25 μM compound preincubated 1 hour, rhMIF stimulation, 24 hours. How it is done:
Effect of Candidate Compounds on Cytokine Production from Human Cells: Mono-Mac-6 Cells: The cellular efficacy of the inhibitors is determined using the human monocytic cell line, Mono-Mac-6 cells (MM6 cells) as it has been shown that MIF induces the production of inflammatory mediators, including tumor necrosis factor-α (TNF-α) interleukin (IL)-1β, IL-6, IL-8, interferon-γ (IFN-γ) and prostaglandin E2 (PGE2) in these cells (Schwartz et al., 2009). Recombinant human MIF (rhMIF) will be purchased from R&D Systems (Minneapolis, Minn.) or generated in house. To induce the production of inflammatory mediators, MM6 cells will be plated at a final concentration of 5×10^5 cells/ml in RPMI 1640 medium containing 1% heat-inactivated low-pyrogen fetal bovine serum, 2 mM GlutaMAX-1,1% non-essential amino acids, 1% sodium pyruvate, 100 units/ml penicillin G and 100 μg/ml streptomycin (Gibco BRL Life Technologies). Cells will be stimulated with 100 ng/ml rhMIF with or without inhibitor for 20 h at 37° C. with 5% CO2. The supernatants were stored at −20° C. until they were assayed. The levels of inflammatory mediators will be determined using commercial ELISA kits from R&D Systems (Minneapolis, Minn.). […] Cytotoxicity is assessed using the MTT [3-(4,5-dimethylthiazol-2-yl)-2,5-diphenyl tetrazolium bromide assay. […] Interleukin 6 levels in culture supernatants are quantitated by ELISA. […]

For experiment [4], the target named is T1, Native human MIF (Homo sapiens, UniProt P14174).
T1 sequence (P14174 2-115 limits assumed): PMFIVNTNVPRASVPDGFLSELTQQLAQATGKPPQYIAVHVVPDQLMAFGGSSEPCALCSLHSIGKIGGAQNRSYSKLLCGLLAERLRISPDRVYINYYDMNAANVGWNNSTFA
Kind of experiment: MIF tautomerase activity assay with hydroxyphenyl pyruvic acid (HPP) substrate. The experiment is classed as biochemical. The conditions noted are these: absorbance at 300 nm. As for the experimental part:
The ability of candidate compounds to inhibit this tautomerase activity are quantitated by using hydroxyphenyl pyruvic acid (HPP) as a substrate (Ouertatani-Sakouhi et al., 2010). The ability of compounds to inhibit the tautomerase activity can be quantitated by following the increase in absorbance due to the enzymatic formation of the HPP enol-borate complex at 300 nm in the absence and presence of a test compound. The IC50 value of compounds are determined by plotting the initial velocities determined at 300 nm as a function of a test compound's concentration. Assays are carried out in a 96 or 384 well plate format. Representative MIF inhibitors were tested in the assay described above and the results tabulated in Table 1 wherein “A” represents≦10 μM; “B” represents>10 μM and <100 μM; “C” represents>100 μM and ≦200 μM; and “D” represents>200 μM.

Consider `Cn1c(=O)c(C#N)c(N2CC(NC(=O)c3cccs3)C2)c2ccccc21` [Compound XXI, N-[1-(3-cyano-1-methyl-2-oxo-1,2-dihydroquinolin-4-yl)azetidin-3-yl]thiophene-2-carboxamide], for which the inhibition at 25 µM in experiment [1] was 10 to 50%; in experiment [2] it was at most 10%; in experiment [3] it was 10 to 50%. The concentration for half-maximal inhibition (IC50) in experiment [4] fell in the range of 10 to 100 µM.

Usually inhibition stands for the change of the read-out against control, counted positive when it falls. As a reminder, the IC50 is the concentration that gives 50% inhibition.

The values are drawn from patent US9050334B2, “MIF inhibitors and their uses” (INNOV88 LLC, priority 2010, dated 2015).
